The record followed here is patent US7982094B2, “Gene encoding lignan methylation enzyme” (Sunitory Holdings Limited, priority 2006, dated 2011).

Experiment [1] relates to SiOMT1. Kind of experiment: Assay for COMT activity of SiOMT1 on caffeic acid. The experiment is classed as biochemical, Sesamum indicum. Particulars: 0.4 mg/ml caffeic acid, 10 mM SAM, 30° C. for an hour, HPLC and LC-MS; product ferulic acid. Here is the method:
(§1) The methyltransferase activity of SiOMT1 and SrOMT1 expressed in EXAMPLES 5 and 7 on caffeic acid was studied. In a reaction tube, 10 μl of 0.4 mg/ml caffeic acid, 200 μl of the crude enzyme solution of SiOMT expressed in Escherichia coli and 10 μl of 10 mM SAM were mixed, and the mixture was reacted at 30° C. for an hour.

For experiment [2], the system named is SrOMT1. Kind of experiment: Assay for COMT activity of SrOMT1 on caffeic acid. The experiment is classed as biochemical, Sesamum radiatum. The following applies: 0.4 mg/ml caffeic acid, 10 mM SAM, 30° C. for an hour, HPLC and LC-MS; product ferulic acid. Here is the method:
as §1

Experiment [3] deals with SiOMT1. The experiment in a line: Lignan methylation activity assay of recombinant SiOMT1 (crude enzyme from E. coli, SAM, HPLC/LC-MS of products). The following applies: substrate solution 1 mg/ml, 10 mM SAM, 30° C. for 2 hours, HPLC at 280 nm. The experiment is classed as biochemical, Sesamum indicum. Here is the method: (§2) Sesame lignan used as a substrate for the enzyme reaction was dissolved in a small quantity of DMSO and then in 70% ethanol to prepare the substrate solution (1 mg/ml). Sesame lignan can be produced, for example, by extracting and purifying from sesame in accordance with publicly known methods (J. Bioscience, Biotechnology and Biochemistry, 67: 1693 (1993)). After 10 μl of the substrate solution, 200 μl of the aforesaid crude enzyme solution of SiOMT expressed in Escherichia coli and 10 μl of 10 mM S-adenosyl-L-methionine (SAM) were mixed in a reaction tube, the mixture was reacted at 30° C. for 2 hours.
The enzyme reaction was terminated by adding 100% acetonitrile (250 μl) containing 0.1% trifluoroacetic acid (TFA) to the reaction tube. The reaction tube was vigorously agitated with a vortex mixer, followed by centrifugation at 15,000 rpm at 4° C. for 5 minutes. The resulting supernatant was washed through a filter (pore size of […], 4 mm Millex-LH, Millipore) and then analyzed using high performance liquid chromatography (hereinafter HPLC). The conditions for the analysis of lignans and methylated lignans are as follows.
Liquid chromatography (Lc-2010c, Shimadzu Corporation) was performed using a C-30 column (Nomura Chemical, C30-UG-5, […]). […] Absorption was monitored at 280 nm to detect the compounds contained in a sample. The spectra between 190 nm and 400 nm for each peak of the compounds were measured using SPD-10AV (Shimadzu Corporation) to detect substances having two absorption maxima (230 nm and 280 nm) characteristic of lignans. Under the conditions, authentic pinoresinol is detected at about 11.8 minutes, authentic piperitol at about 15.5 minutes and authentic sesaminol at about 16.8 minutes.
Next, the molecular weight of the novel lignan produced with SiOMT1 was determined by the LC-MS analysis (liquid chromatography (LC): Waters 2795 (Waters Inc.), mass spectrograph: QUATRO micro (MICROMASS, Inc.)). […]
Under the conditions, peak A is detected at about 8.3 minutes and peak B at about 11.3 minutes (FIGS. 3-5). […]

Another experiment deals with SiOMT2. Kind of experiment: Lignan methylation activity assay of recombinant SiOMT2 (crude enzyme from E. coli, SAM, HPLC of products). The format is biochemical, Sesamum indicum. Particulars: substrate solution 1 mg/ml, 10 mM SAM, 30° C. for 2 hours, HPLC at 280 nm. Here is the method: as §2
The enzyme reaction was terminated by adding 100% acetonitrile (250 μl) containing 0.1% trifluoroacetic acid (TFA) to the reaction tube. […] The resulting supernatant was washed through a filter (pore size of […], 4 mm Millex-LH, Millipore) and then analyzed using high performance liquid chromatography (hereinafter HPLC). […]
Liquid chromatography (Lc-2010c, Shimadzu Corporation) was performed using a C-30 column (Nomura Chemical, C30-UG-5, […]). […] Absorption was monitored at 280 nm to detect the compounds contained in a sample. The spectra between 190 nm and 400 nm for each peak of the compounds were measured using SPD-10AV (Shimadzu Corporation) to detect substances having two absorption maxima (230 nm and 280 nm) characteristic of lignans. […]

Experiment [4] relates to SrOMT1. The experiment in a line: Lignan methylation activity assay of recombinant SrOMT1 (crude enzyme from E. coli, SAM, HPLC of products). The format is biochemical, Sesamum radiatum. Particulars: as in EXAMPLE 6: 10 mM SAM, 30° C. for 2 hours.

For the compound `O=C(O)/C=C/c1ccc(O)c(O)c1` [caffeic acid], the “methyltransferase (COMT) activity of SiOMT1 on caffeic acid” value with SiOMT1 [1] was “had the COMT activity”. For the same compound, the “methyltransferase (COMT) activity of SrOMT1 on caffeic acid” value in the experiment with SrOMT1 [2] is reported as “had the COMT activity”.
Consider `COc1cc([C@@H]2OC[C@@H]3[C@H]2CO[C@H]3c2ccc3c(c2)OCO3)ccc1O` [piperitol], for which the “methylation of the substrate by SiOMT1 (lignan methylation activity)” value (“methylation of the substrate by SiOMT1” below) in the experiment on SiOMT1 [3] is recorded as “having the monomethylation activity”. In the experiment on SiOMT2, the “methylation of the substrate by SiOMT2 (lignan methylation activity)” value was “any new product was not detected”. The “methylation of the substrate by SrOMT1 (lignan methylation activity)” value in the experiment on SrOMT1 [4] is reported as “exhibited the methylation activity”.
As to `Oc1cc2c(cc1[C@H]1OC[C@H]3[C@@H]1CO[C@@H]3c1ccc3c(c1)OCO3)OCO2` [sesaminol], the “methylation of the substrate by SiOMT1” value in the experiment on SiOMT1 [3] was “did not show any methylation activity”.
Take pinoresinol: in the experiment on SiOMT1 [3], the “methylation of the substrate by SiOMT1” value is “having the monomethylation activity”. In the experiment with SiOMT2, the “methylation of the substrate by SiOMT2 (lignan methylation activity)” value was “any new product was not detected”. In addition, the “methylation of the substrate by SrOMT1 (lignan methylation activity)” value in the experiment with SrOMT1 [4] is listed as “exhibited the methylation activity”.
